According to patent publication US11161837B2, “Benzofuran derivatives for the treatment of hepatitis C” (BRISTOL-MYERS SQUIBB COMPANY, priority 2016, dated 2021):

Experiments:
HCV [1] = settings: combination therapy; cited from earlier work
[2] = test system: genotype 1b (Con-1) HCV replicon in Huh-7 cells; test: HCV replicon luciferase assay; assay type: cell-based; settings: 1b replicon, Huh-7, Renilla luciferase, 3 days incubation
Method in brief: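 Huh-7 cells carrying Con-1 genotype 1b replicon with Renilla luciferase reporter seeded onto titrated compound in DMEM, 4% FBS, 0.5% DMSO, 3 days at 37 °C. Luciferase read with EnduRen substrate (7.5 μM final) after ≥1 h; EC50 by four-parameter logistic fit.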

[3] = biological target: T1, NS5B proteins of HCV genotype 1b (Con1) (Hepatitis C virus genotype 1b, UniProt Q9WMX2); test: HCV NS5B RdRp enzyme assay; assay type: biochemical; settings: 1b enzyme
T1 construct: Each untagged protein was expressed with an 18 amino acid C-terminal truncation to enhance the solubility; made in house; host or cells: E. coli BL21(DE3), pET21a
Procedure: HCVNS5B RdRp Cloning, Expression, and Purification.
The cDNA encoding NS5B proteins of HCV genotype 1b (Con1), a genotype 1b variant with amino acid 316 mutated from cysteine to asparagine, and genotype 2a (JFH-1), were cloned into the pET21a expression vector. Each untagged protein was expressed with an 18 amino acid C-terminal truncation to enhance the solubility. The E. coli competent cell line BL21(DE3) was used for expression of the protein. Cultures were grown at 37° C. for ˜4 hours until the cultures reached an optical density of 2.0 at 600 nm. The cultures were cooled to 20° C. and induced with 1 mM IPTG. Fresh ampicillin was added to a final concentration of 50 μg/mL and the cells were grown overnight at 20° C.
Cell pellets (3 L) were lysed for purification to yield 15-24 mgs of purified NS5B. The lysis buffer consisted of 20 mM Tris-HCl, pH 7.4, 500 mM NaCl, 0.5% triton X-100, 1 mM DTT, 1 mM EDTA, 20% glycerol, 0.5 mg/mL lysozyme, 10 mM MgCl2, 15 ug/mL deoxyribonuclease I, and Complete TM protease inhibitor tablets (Roche). After addition of the lysis buffer, frozen cell pellets were resuspended using a tissue homogenizer. To reduce the viscosity of the sample, aliquots of the lysate were sonicated on ice using a microtip attached to a Branson sonicator. The sonicated lysate was centrifuged at 100,000×g for 30 minutes at 4° C. and filtered through a 0.2 μm filter unit (Corning).
The protein was purified using two sequential chromatography steps: Heparin sepharose CL-6B and polyU sepharose 4B. The chromatography buffers were identical to the lysis buffer but contained no lysozyme, deoxyribonuclease I, MgCl2 or protease inhibitor and the NaCl concentration of the buffer was adjusted according to the requirements for charging the protein onto the column. Each column was eluted with a NaCl gradient which varied in length from 5-50 column volumes depending on the column type. After the final chromatography step, the resulting purity of the enzyme is >90% based on SDS-PAGE analysis. The enzyme was aliquoted and stored at −80° C.
HCVNS5B RdRp Enzyme Assay.
An on-bead solid phase homogeneous assay was used in a 384-well format to assess NS5B inhibitors (WangY-K, Rigat K, Roberts S, and Gao M (2006) Anal Biochem, 359: 106-111). The biotinylated oligo dT12 primer was captured on streptavidin-coupled imaging beads (GE, RPNQ0261) by mixing primer and beads in 1× buffer and incubating at room temperature for three hours. Unbound primer was removed after centrifugation. The primer-bound beads were resuspended in 3× reaction mix (20 mM Hepes buffer, pH 7.5, dT primer coupled beads, poly A template, ^3H-UTP, and RNAse inhibitor (Promega N2515)). Compounds were serially diluted 1:3 in DMSO and aliquoted into assay plates. Equal volumes (10 μL) of water, 3× reaction mix, and enzyme in 3× assay buffer (60 mM Hepes buffer, pH 7.5, 7.5 mM MgCl2, 7.5 mM KCl, 3 mM DTT, 0.03 mg/mL BSA, 6% glycerol) were added to the diluted compound on the assay plate. Final concentration of components in 384-well assay: 0.36 nM template, 15 nM primer, 0.29 μM ^3H-UTP (0.3 μCi), 1.6 U/μL RNAse inhibitor, 7 nM NS5B enzyme, 0.01 mg/mL BSA, 1 mM DTT, and 0.33 μg/μL beads, 20 mM Hepes buffer, pH 7.5, 2.5 mM MgCl2, 2.5 mM KCl, and 0.1% DMSO.
Reactions were allowed to proceed from 4 to 24 hours at 30° C. For 24 hour reactions, enzyme and inhibitors were pre-incubated for 24 hours before adding template and primer. Reactions were terminated by the addition of 50 mM EDTA (10 μL). After incubating for at least 15 minutes, plates were read on an Amersham LEADseeker multimodality imaging system.
IC50 values for compounds were determined using ten different [I]. IC50 values were calculated from the inhibition using the four-parameter logistic formula y=A+((B−A)/(1+((C/x)^D))), where A and B denote minimal and maximal % inhibition, respectively, C is the IC50, D is hill slope and x represents compound concentration.

HCV [4] = settings: cited from earlier work

T1 sequence (Q9WMX2 2420-2992): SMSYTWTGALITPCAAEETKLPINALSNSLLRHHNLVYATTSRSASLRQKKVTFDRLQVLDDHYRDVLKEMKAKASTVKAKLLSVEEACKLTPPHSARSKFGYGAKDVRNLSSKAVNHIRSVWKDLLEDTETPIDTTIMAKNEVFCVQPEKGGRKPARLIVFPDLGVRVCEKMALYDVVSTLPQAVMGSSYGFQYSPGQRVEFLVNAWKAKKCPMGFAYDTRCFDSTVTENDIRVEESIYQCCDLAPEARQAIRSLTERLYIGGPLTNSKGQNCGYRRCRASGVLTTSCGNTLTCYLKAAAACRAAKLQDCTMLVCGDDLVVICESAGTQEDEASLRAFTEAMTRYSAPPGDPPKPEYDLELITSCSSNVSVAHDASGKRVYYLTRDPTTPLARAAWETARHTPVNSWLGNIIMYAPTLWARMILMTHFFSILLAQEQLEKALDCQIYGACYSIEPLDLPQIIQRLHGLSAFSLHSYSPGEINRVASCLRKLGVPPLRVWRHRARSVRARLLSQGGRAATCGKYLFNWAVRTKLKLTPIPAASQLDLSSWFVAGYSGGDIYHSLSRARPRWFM

Row | Compound | IC50 [3] [nM] | EC50 [2] [nM] | further results
1 | alpha-interferon and ribavirin |  |  | sustained efficacy, share of patients (HCV [1]): 40%
2 | CNC(=O)c1c(-c2ccc(F)cc2)oc2ccc(-c3cc(C(=O)NC4(c5ncccn5)CC(F)(F)C4)cc(F)c3C)c(F)c12 [Example 17, 5-(5-((3,3-Difluoro-1-(pyrimidin-2-yl)cyclobutyl)carbamoyl)-3-fluoro-2-methylphenyl)-4-fluoro-2-(4-fluorophenyl)-N-methylbenzofuran-3-carboxamide] | 250 |  | EC50 ([2]; Hepatitis C virus, Huh-7, 72 h): 10 nM
3 | CNC(=O)c1c(-c2ccc(F)cc2)oc2ccc(-c3cc(C(=O)NC4(c5ncccn5)CC(O)C4)ccc3C)c(F)c12 (single isomer, unassigned) [Example 5a, 4-Fluoro-2-(4-fluorophenyl)-5-(5-((3-hydroxy-1-(pyrimidin-2-yl)cyclobutyl)carbamoyl)-2-methylphenyl)-N-methylbenzofuran-3-carboxamide] | 1280 | 3860 | 
4 | CCCc1cc2oc(-c3ccc(F)cc3)c(C(=O)NC)c2cc1-c1ccc(OC)c(C(=O)NC2(c3ncccn3)CC(OC(F)(F)F)C2)c1 (single isomer, unassigned) [Example 51b, 2-(4-Fluorophenyl)-5-(4-methoxy-3-((1-(pyrimidin-2-yl)-3-(trifluoromethoxy)cyclobutyl)carbamoyl)phenyl)-N-methyl-6-propylbenzofuran-3-carboxamide] | 20 | 10 | 
5 | CNC(=O)c1c(-c2ccc(F)cc2)oc2cc(CCC(F)(F)F)c(-c3cccc(C(=O)NC4(c5ncccn5)CC(OC(F)(F)F)C4)c3)cc12 (single isomer, unassigned) [Example 45a, 2-(4-Fluorophenyl)-N-methyl-5-(3-((1-(pyrimidin-2-yl)-3-(trifluoromethoxy)cyclobutyl)carbamoyl)phenyl)-6-(3,3,3-trifluoropropyl)benzofuran-3-carboxamide] | 20 | 20 | 
6 | CNC(=O)c1c(-c2ccc(F)cc2)oc2ccc(-c3cc(C(=O)NC4(c5ncccn5)CC(O)C4)cc(F)c3C)c(F)c12 (single isomer, unassigned) [Example 9a, 4-Fluoro-5-(3-fluoro-5-((3-hydroxy-1-(pyrimidin-2-yl)cyclobutyl)carbamoyl)-2-methylphenyl)-2-(4-fluorophenyl)-N-methylbenzofuran-3-carboxamide] | 570 |  | EC50 ([2]; Hepatitis C virus, Huh-7, 72 h): 470 nM
7 | CNC(=O)c1c(-c2ccc(F)cc2)oc2cc(CCC(F)(F)F)c(-c3ccc(F)c(C(=O)NC4(C)CC(OC(F)F)C4)c3)cc12 (single isomer, unassigned) [Example 63b, 5-(3-((3-(Difluoromethoxy)-1-methylcyclobutyl)carbamoyl)-4-fluorophenyl)-2-(4-fluorophenyl)-N-methyl-6-(3,3,3-trifluoropropyl)benzofuran-3-carboxamide] | 3.03 | 10 | 
8 | CNC(=O)c1c(-c2ccc(F)cc2)oc2cc(CCC(F)(F)F)c(-c3cccc(C(=O)NC4(C)CC(OC(F)F)C4)c3)cc12 (single isomer, unassigned) [Example 59b, 5-(3-((3-(Difluoromethoxy)-1-methylcyclobutyl)carbamoyl)phenyl)-2-(4-fluorophenyl)-N-methyl-6-(3,3,3-trifluoropropyl)benzofuran-3-carboxamide] | 10 | 20 | 
9 | CNC(=O)c1c(-c2ccc(F)cc2)oc2cc(NCC(F)(F)F)c(-c3ccc(OC)c(C(=O)NC4(c5ncccn5)CC(OC(F)F)C4)c3)cc12 (single isomer, unassigned) [Example 64a] | 3.3 |  | EC50 ([2]; Hepatitis C virus, Huh-7, 72 h): 4.23 nM
10 | CNC(=O)c1c(-c2ccc(F)cc2)oc2ccc(-c3cc(C(=O)NC4(c5ncccn5)CC(OC)C4)ccc3C)c(F)c12 (single isomer, unassigned) [Example 10b, 4-Fluoro-2-(4-fluorophenyl)-5-(5-((3-methoxy-1-(pyrimidin-2-yl)cyclobutyl)carbamoyl)-2-methylphenyl)-N-methylbenzofuran-3-carboxamide] | 10 | 4.43 | 
11 | CNC(=O)c1c(-c2ccc(F)cc2)oc2cc(NCC(F)(F)F)c(-c3ccc(OC)c(C(=O)NC4(c5ncccn5)CC(OC(F)F)C4)c3)cc12 (single isomer, unassigned) [Example 64b] | 3.97 | 5.97 | 
12 | CNC(=O)c1c(-c2ccc(F)cc2)oc2cc(N(CCO)S(C)(=O)=O)c(C3CC3)cc12 [HCV-796] |  |  | hepatic toxicity (HCV [4]; extended dosing of the combination regimens): hepatic toxicity observed; HCV RNA levels in patients (HCV [4]; patients, transient as single agent, more robust with interferon and ribavirin): reduce HCV RNA levels
13 | CNC(=O)c1c(-c2ccc(F)cc2)oc2cc(CCC(F)(F)F)c(-c3cccc(C(=O)NC4(c5ncccn5)CC(OC(F)(F)F)C4)c3)cc12 (single isomer, unassigned) [Example 45b, 2-(4-Fluorophenyl)-N-methyl-5-(3-((1-(pyrimidin-2-yl)-3-(trifluoromethoxy)cyclobutyl)carbamoyl)phenyl)-6-(3,3,3-trifluoropropyl)benzofuran-3-carboxamide] | 10 | 9.46 | 
14 | CCOc1cc2oc(-c3ccc(F)cc3)c(C(=O)NC)c2cc1-c1ccc(OC)c(C(=O)NC2(c3ncccn3)CC(OC(F)F)C2)c1 (single isomer, unassigned) [Example 66b, 5-(3-((3-(Difluoromethoxy)-1-(pyrimidin-2-yl)cyclobutyl)carbamoyl)-4-methoxyphenyl)-6-ethoxy-2-(4-fluorophenyl)-N-methylbenzofuran-3-carboxamide] | 2.02 | 4.39 | 
15 | CNC(=O)c1c(-c2ccc(F)cc2)oc2ccc(-c3cc(C(=O)NC4(c5ncccn5)CC(OC)C4)ccc3C)c(F)c12 (single isomer, unassigned) [Example 10a, 4-Fluoro-2-(4-fluorophenyl)-5-(5-((3-methoxy-1-(pyrimidin-2-yl)cyclobutyl)carbamoyl)-2-methylphenyl)-N-methylbenzofuran-3-carboxamide] | 60 | 30 | 
16 | CNC(=O)c1c(-c2ccc(F)cc2)oc2ccc(-c3cc(C(=O)NC4(c5ncccn5)CC(F)C4)ccc3C)c(F)c12 (stereo not drawn) [Example 16, 4-Fluoro-5-(5-(3-fluoro-1-(pyrimidin-2-yl)cyclobutylcarbamoyl)-2-methylphenyl)-2-(4-fluorophenyl)-N-methylbenzofuran-3-carboxamide] | 30 |  | EC50 ([2]; Hepatitis C virus, Huh-7, 72 h): 6.62 nM
17 | CNC(=O)c1c(-c2ccc(F)cc2)oc2cc(CCC(F)(F)F)c(-c3cccc(C(=O)NC4(c5ncccn5)CC(OC(F)F)C4)c3)cc12 (single isomer, unassigned) [Example 29a] | 6.14 | 4.07 | 
